One assay concerns MKN45 cells. Description: MKN45 cell proliferation assay (CellTiter-Glo). In kind it is cell-based. Particulars: Homo sapiens, MKN-45, 72 h, MKN45 cell line, 3 days incubation, at least duplicate experiments, read-out: Prolif. IC50. The procedure:
The effect of inhibitors on the proliferation of MKN45 cells was determined using the following protocol. MKN45 cells were plated in Corning 3917 96-well white tissue culture treated plates in growth medium (RPMI, 10% FCS) at a density of 5000 cells/well in a total volume of 135 μL and incubated at 37° C., 5% CO2, 95% humidity overnight. The following day, one-tenth volume of a 10× concentration of compounds was added to the wells in an 8-point dilution series. The dilution series was composed of an initial 1:5 dilution of a 10 mM stock of compound in DMSO, followed by serial 1:4 dilutions in DMSO, then a 1:20 dilution in growth medium prior to the 1:10 dilution into the cell plate. Final DMSO concentration on the cells was 0.1%, there were control wells treated with both 0.1% DMSO and no DMSO. The typical dilution range is 10 μM to 0.6 nM. Once the compound was added to the cells, plates were incubated for 3 days at 37° C., 5% CO2 at 95% humidity. On the third day, after allowing all cells and reagents to come to room temperature, 25 μL of CellTiter-Glo reagent (Promega # G7573) was added to the wells. Plates were shaken on a platform for 10 minutes prior to reading luminescence for 0.1 seconds. The signal of the control wells was taken as 100% growth and growth inhibition was expressed as percent of control. IC50 values were determined from the percent of control data using a standard four-parameter model.
The IC50 values of exemplary compounds of the present invention determined in a cell proliferation assay using the MKN45 cell line according to the procedures described herein in at least duplicate experiments are abbreviated as follows and are shown in Table 2: A, IC50≦0.1 μM; B, 0.1 μM<IC50≦1 μM; C, 1 μM<IC50≦10 μM; D, IC50>10 μM; ND, not determined. The Example # of Table 2 corresponds to the compound example number as illustrated in the Examples section.

A further assay addresses T1, phosphorylated c-MET (Homo sapiens, UniProt P08581).
T1 construct: endogenous in cells; host or cells: MKN45
Description: c-MET cell mechanistic assay (phosphorylated c-MET in MKN45 cells). Particulars: MKN45 cell line, four hours incubation, phosphorylated c-MET levels, at least duplicate experiments; read-out: Met mech IC50. The format is cell-based. As to the method:
The cellular activity of the compounds of the present invention may be determined by the following procedure. MKN45 cells were plated in Falcon 3072 96-well plates in growth media (RPMI, 10% FBS, 1% L-glutamine) at a density of 5000 cells/well and incubated at 37° C., 5% CO2 overnight. The following day, one-tenth volume of a 10× concentration of compounds was added to the wells in a 6-point dilution series. The dilutions series was composed of an initial 1:5 dilution in DMSO, followed by a 1:10 dilution in growth media, for a final DMSO concentration on cells of 0.5%. Control wells were treated with 0.5% DMSO. The typical range of dilution was 10 μM to 3 nM. Once compound was added to the cells, plates were incubated for four hours at 37° C., 5% CO2. Plates were then washed in PBS, and lysed in triton-based lysis buffer. Lysates were transferred to a precoated capture plate made by Biosource (Cat # KH00281). The phosphorylated c-MET levels were measured by incubating with a rabbit polyclonal antibody against phosphorylated c-MET ([pYpYpY1230/1234/1235]) followed by an anti-rabbit antibody conjugated to HRP. Signal was measured on a Wallac Victor plate reader at 450 nm. The DMSO signal of the control wells was defined as 100% and the percent of inhibition of phosphorylated c-Met was expressed as percent of control. IC50 values were determined from the percent of control data using a standard four-parameter model.
The IC50 values of exemplary compounds of the present invention determined in a c-MET cell mechanistic assay using the MKN45 cell line according to the procedures described herein in at least duplicate experiments are abbreviated as follows and are shown in Table 3: A, IC50≦0.1 μM; B, 0.1 μM<IC50≦1 μM; C, 1 μM<IC50≦10 μM; D, IC50>10 μM; ND, not determined. The Example # of Table 3 corresponds to the compound example number as illustrated in the Examples section.

T1 sequence (P08581 25-1390): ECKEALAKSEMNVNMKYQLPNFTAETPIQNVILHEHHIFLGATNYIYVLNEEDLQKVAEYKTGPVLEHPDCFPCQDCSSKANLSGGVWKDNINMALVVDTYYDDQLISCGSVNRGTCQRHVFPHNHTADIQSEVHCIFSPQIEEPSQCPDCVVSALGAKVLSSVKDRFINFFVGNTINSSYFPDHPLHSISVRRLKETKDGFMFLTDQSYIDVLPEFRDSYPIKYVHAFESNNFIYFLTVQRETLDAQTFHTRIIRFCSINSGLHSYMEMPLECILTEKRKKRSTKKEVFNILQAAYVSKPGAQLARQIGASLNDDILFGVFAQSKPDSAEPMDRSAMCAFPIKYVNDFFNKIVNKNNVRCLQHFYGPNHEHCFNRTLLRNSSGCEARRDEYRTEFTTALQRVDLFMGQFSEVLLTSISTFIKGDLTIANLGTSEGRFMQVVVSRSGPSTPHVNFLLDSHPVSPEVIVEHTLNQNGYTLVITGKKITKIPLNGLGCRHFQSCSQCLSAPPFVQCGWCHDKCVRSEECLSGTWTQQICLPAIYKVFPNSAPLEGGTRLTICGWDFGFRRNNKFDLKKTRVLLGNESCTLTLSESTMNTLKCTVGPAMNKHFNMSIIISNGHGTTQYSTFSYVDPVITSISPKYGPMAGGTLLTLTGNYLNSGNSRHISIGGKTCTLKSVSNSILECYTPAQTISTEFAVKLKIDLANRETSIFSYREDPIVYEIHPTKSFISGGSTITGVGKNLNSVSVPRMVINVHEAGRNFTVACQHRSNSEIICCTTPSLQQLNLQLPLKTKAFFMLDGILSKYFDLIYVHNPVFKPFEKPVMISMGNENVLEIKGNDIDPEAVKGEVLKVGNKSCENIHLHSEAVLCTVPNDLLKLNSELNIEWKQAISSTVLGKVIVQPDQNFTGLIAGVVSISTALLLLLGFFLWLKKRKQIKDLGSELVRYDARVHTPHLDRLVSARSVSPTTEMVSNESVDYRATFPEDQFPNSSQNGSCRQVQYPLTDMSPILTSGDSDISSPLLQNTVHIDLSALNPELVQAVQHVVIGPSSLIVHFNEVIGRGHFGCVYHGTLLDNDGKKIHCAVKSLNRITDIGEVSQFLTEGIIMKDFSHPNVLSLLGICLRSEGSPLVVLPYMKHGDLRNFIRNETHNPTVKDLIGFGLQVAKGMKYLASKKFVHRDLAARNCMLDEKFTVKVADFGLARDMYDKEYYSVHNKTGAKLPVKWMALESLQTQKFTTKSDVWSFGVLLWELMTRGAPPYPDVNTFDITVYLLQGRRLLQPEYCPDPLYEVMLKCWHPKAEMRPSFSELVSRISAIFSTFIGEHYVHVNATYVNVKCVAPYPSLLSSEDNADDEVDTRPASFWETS

As for `CNS(=O)(=O)c1ccc(-c2cnc3[nH]cc(C(C)c4c(Cl)ccc(F)c4Cl)c3c2)cc1` (stereo not shown) [Example 23, 4-{3-[1-(2,6-Dichloro-3-fluorophenyl)ethyl]-1H-pyrrolo[2,3-b]pyridin-5-yl}-N-methylbenzenesulfonamide], the IC50 in the assay with MKN45 cells fell in the range of 1000 to 10000 nM; on phosphorylated c-MET, 100 to 1000 nM.
With `CC(c1c(Cl)ccc(F)c1Cl)c1c[nH]c2ncc(-c3ccc(C(=O)NCCO)cc3)cc12` (stereo not shown) [Example 24, 4-{3-[1-(2,6-Dichloro-3-fluorophenyl)ethyl]-1H-pyrrolo[2,3-b]pyridin-5-yl}-N-(2-hydroxyethyl)benzamide], the IC50 in the assay on MKN45 cells and on phosphorylated c-MET was 100 to 1000 nM throughout.
Take `CC(c1c(Cl)ccc(F)c1Cl)c1c[nH]c2ncc(-c3cn[nH]c3)cc12` (stereo not shown) [Example 26, 3-[1-(2,6-Dichloro-3-fluorophenyl)-ethyl]-5-(1H-pyrazol-4-yl)-1H-pyrrolo[2,3-b]pyridine]: the half-maximal inhibitory concentration (IC50) with MKN45 cells and at phosphorylated c-MET was 100 to 1000 nM in each case.
With `CC(c1c(Cl)ccc(F)c1Cl)c1c[nH]c2ncc(-c3cnn(C)c3)cc12` (stereo not shown) [Example 27, 3-[1-(2,6-Dichloro-3-fluorophenyl)-ethyl]-5-(1-methyl-1H-pyrazol-4-yl)-1H-pyrrolo[2,3-b]pyridine], the IC50 is 100 to 1000 nM in the assay with MKN45 cells and at most 100 nM on phosphorylated c-MET.
For `CC(c1c(Cl)ccc(F)c1Cl)c1c[nH]c2ncc(-c3cnn(C4CCN(C(=O)N(C)C)CC4)c3)cc12` (stereo not shown) [Example 28, 4-(4-{3-[1-(2,6-Dichloro-3-fluorophenyl)ethyl]-1H-pyrrolo[2,3-b]pyridin-5-yl}-pyrazol-1-yl)-piperidine-1-carboxylic acid dimethylamide], the 50% inhibitory concentration (IC50) in the assay on MKN45 cells and on phosphorylated c-MET was at most 100 nM each time.
Take `CC(c1c(Cl)ccc(F)c1Cl)c1c[nH]c2ncc(-c3cnn(C4CCN(CC(F)(F)F)CC4)c3)cc12` (stereo not shown) [Example 29, 3-[1-(2,6-Dichloro-3-fluorophenyl)ethyl]-5-{1-[1-(2,2,2-trifluoroethyl)-piperidin-4-yl]-1H-pyrazol-4-yl}-1H-pyrrolo[2,3-b]pyridine]: the IC50 with MKN45 cells and at phosphorylated c-MET was 100 to 1000 nM each time.
Regarding `CC(c1c(Cl)ccc(F)c1Cl)c1c[nH]c2ncc(-c3cnn(C(C)C)c3)cc12` (stereo not shown) [Example 30, 3-[1-(2,6-Dichloro-3-fluorophenyl)ethyl]-5-(1-isopropyl-1H-pyrazol-4-yl)-1H-pyrrolo[2,3-b]pyridine], the values for the 50% inhibitory concentration (IC50) in the assay with MKN45 cells and on phosphorylated c-MET were 100 to 1000 nM and at most 100 nM, respectively.
Take `CC(c1c(Cl)ccc(F)c1Cl)c1c[nH]c2ncc(-c3cnn(CCN4CCOCC4)c3)cc12` (stereo not shown) [Example 31, 3-[1-(2,6-Dichloro-3-fluorophenyl)ethyl]-5-[1-(2-morpholin-4-ylethyl)-1H-pyrazol-4-yl]-1H-pyrrolo[2,3-b]pyridine]: the 50% inhibitory concentration (IC50) with MKN45 cells and at phosphorylated c-MET was at most 100 nM throughout.
In the case of `CC(c1c(Cl)ccc(F)c1Cl)c1c[nH]c2ncc(C3=CCNCC3)cc12` (stereo not shown) [Example 32, 3-[1-(2,6-Dichloro-3-fluorophenyl)-ethyl]-5-(1,2,3,6-tetrahydropyridin-4-yl)-1H-pyrrolo[2,3-b]pyridine], the IC50 with MKN45 cells and on phosphorylated c-MET was 100 to 1000 nM throughout.
Regarding `CC(c1c(Cl)ccc(F)c1Cl)c1c[nH]c2ncc(C3=CCN(C(N)=O)CC3)cc12` (stereo not shown) [Example 33, 4-{3-[1-(2,6-Dichloro-3-fluorophenyl)ethyl]-1H-pyrrolo[2,3-b]pyridin-5-yl}-3,6-dihydro-2H-pyridine-1-carboxamide], the IC50 was 100 to 1000 nM with MKN45 cells and at most 100 nM at phosphorylated c-MET.
For `CC(c1c(Cl)ccc(F)c1Cl)c1c[nH]c2ncc(C3=CCN(C(=O)N(C)C)CC3)cc12` (stereo not shown) [Example 36, 4-{3-[1-(2,6-Dichloro-3-fluorophenyl)-ethyl]-1H-pyrrolo[2,3-b]pyridin-5-yl}-3,6-dihydro-2H-pyridine-1-carboxylic acid dimethylamide], the IC50 in the assay with MKN45 cells and on phosphorylated c-MET was 100 to 1000 nM in each case.
On to `CC(c1c(Cl)ccc(F)c1Cl)c1c[nH]c2ncc(C3=CCN(C=O)CC3)cc12` (stereo not shown) [Example 38, 4-{3-[1-(2,6-Dichloro-3-fluorophenyl)ethyl]-1H-pyrrolo[2,3-b]pyridin-5-yl}-3,6-dihydro-2H-pyridine-1-carbaldehyde], for which the half-inhibitory concentration (IC50) with MKN45 cells and on phosphorylated c-MET was 100 to 1000 nM throughout.
Take `CC(=O)N1CC=C(c2cnc3[nH]cc(C(C)c4c(Cl)ccc(F)c4Cl)c3c2)CC1` (stereo not shown) [Example 39, 1-(4-{3-[1-(2,6-Dichloro-3-fluorophenyl)ethyl]-1H-pyrrolo[2,3-b]pyridin-5-yl}-3,6-dihydro-2H-pyridin-1-yl)-ethanone]: the IC50 in the assay on MKN45 cells and on phosphorylated c-MET was 100 to 1000 nM throughout.
On to `CC(c1c(Cl)ccc(F)c1Cl)c1c[nH]c2ncc(C3=CCN(C(=O)[C@@H](C)O)CC3)cc12` (stereo partly drawn) [Example 40, (R)-1-(4-{3-[1-(2,6-Dichloro-3-fluorophenyl)ethyl]-1H-pyrrolo[2,3-b]-pyridin-5-yl}-3,6-dihydro-2H-pyridin-1-yl)-2-hydroxypropan-1-one], for which the IC50 was 100 to 1000 nM in the assay with MKN45 cells and at most 100 nM at phosphorylated c-MET.
Consider `CC(c1c(Cl)ccc(F)c1Cl)c1c[nH]c2ncc(C3=CCN(C(=O)[C@H](C)O)CC3)cc12` (stereo partly drawn) [Example 41, (S)-1-(4-{3-[1-(2,6-Dichloro-3-fluorophenyl)ethyl]-1H-pyrrolo[2,3-b]-pyridin-5-yl}-3,6-dihydro-2H-pyridin-1-yl)-2-hydroxypropan-1-one], for which the IC50 in the assay with MKN45 cells was 100 to 1000 nM; on phosphorylated c-MET, at most 100 nM.
For `CC(c1c(Cl)ccc(F)c1Cl)c1c[nH]c2ncc(C3=CCN(C(=O)C(C)(C)O)CC3)cc12` (stereo not shown) [Example 42, 1-(4-{3-[1-(2,6-Dichloro-3-fluorophenyl)ethyl]-1H-pyrrolo[2,3-b]pyridin-5-yl}-3,6-dihydro-2H-pyridin-1-yl)-2-hydroxy-2-methylpropan-1-one], the concentration for half-maximal inhibition (IC50) in the assay with MKN45 cells and on phosphorylated c-MET was 100 to 1000 nM each time.
For the molecule `CC(c1c(Cl)ccc(F)c1Cl)c1c[nH]c2ncc(C3=CCN(C(=O)CO)CC3)cc12` (stereo not shown) [Example 43, 1-(4-{3-[1-(2,6-Dichloro-3-fluorophenyl)ethyl]-1H-pyrrolo[2,3-b]pyridin-5-yl}-3,6-dihydro-2H-pyridin-1-yl)-2-hydroxyethanone], the IC50 with MKN45 cells and on phosphorylated c-MET was at most 100 nM each time.
In the case of `CC(c1c(Cl)ccc(F)c1Cl)c1c[nH]c2ncc(C3=CCN(C(=O)C(C)(C)N)CC3)cc12` (stereo not shown) [Example 45, 2-Amino-1-(4-{3-[1-(2,6-dichloro-3-fluorophenyl)ethyl]-1H-pyrrolo[2,3-b]pyridin-5-yl}-3,6-dihydro-2H-pyridin-1-yl)-2-methylpropan-1-one], the IC50 in the assay with MKN45 cells and on phosphorylated c-MET was at most 100 nM each time.
In the case of `CC(c1c(Cl)ccc(F)c1Cl)c1c[nH]c2ncc(C3=CCN(S(N)(=O)=O)CC3)cc12` (stereo not shown) [Example 46, 4-{3-[1-(2,6-Dichloro-3-fluorophenyl)ethyl]-1H-pyrrolo[2,3-b]pyridin-5-yl}-3,6-dihydro-2H-pyridine-1-sulfonic acid amide], the IC50 with MKN45 cells and on phosphorylated c-MET was 100 to 1000 nM in each case.
`CC(c1c(Cl)ccc(F)c1Cl)c1c[nH]c2ncc(-c3cnn(C4CCN(C=O)CC4)c3)cc12` (stereo not shown) [Example 47, 4-(4-{3-[1-(2,6-Dichloro-3-fluorophenyl)ethyl]-1H-pyrrolo[2,3-b]pyridin-5-yl}-pyrazol-1-yl)-piperidine-1-carbaldehyde]: the concentration for half-maximal inhibition (IC50) with MKN45 cells and on phosphorylated c-MET was at most 100 nM in each case.

What is called IC50 is the midpoint of a concentration-inhibition curve.

For the origin of these results see patent US8592448B2 (OSI Pharmaceuticals, LLC, priority 2008, dated 2013).
